Results from patent US12527849B2, “Apparatus for determining administration form of a composition of an engineered virus-based nanoparticle for a treatment of an autoimmune condition” (Diamante Srl, priority 2021, dated 2026).

How the values were obtained:
Assay type in all cases: in vivo
IFN-γ = test: Pro-inflammatory cytokines in sera of CIA Collagen mice (ELISA, day 58): IFN-γ; settings: Dexamethasone oral 1 mg/kg, 20 times between day 28 and 57
Description: (§1) Critical administration 124 disclosed herein is further described below. Q5D represents administration 5 days a part. TBSV·pLIp1 and wt TBSV shown in Table 1 may include liquid form that are not sterile and stored in −20° C. TBSV·pLIp1 may be given at the dose of 50 μG/100 μL Male DBA/1J mice (8 weeks; Envigo, Italy) may be used for these studies. Mice may be housed in individual cages (two for each group) and maintained under a 12:12 light-dark cycle at 21° C.±1° C. and 50%±5% humidity. The animals may be acclimated to their environment for 1 week and had ad libitum access to tap water and standard rodent diet. All animal experiments may be complied with regulations in Italy (D.M. 116192), Europe (O.J of E.C. L 358/112/18/1986), and the United States (Animal Welfare Assurance Number A5594-01, Department of Health and Human Services, USA). […] Arthritis was assessed by using qualitative severity score system and hind paw volume (mL) measured by a plethysmometer on day 20, 22, 24, 26, 28, 30, 32, 34, 36, 38, 40, 42, 44, 46 48, 50, 52, 54, 56 and 58. Body weight was recorded on day 0, 6, 13, 16, 18, 20, 22, 24, 26, 28, 30, 32, 34, 36, 38, 40, 42, 44, 46, 50, 52, 54, 56 and 58. […]

IL-12p70 = test: Pro-inflammatory cytokines in sera of CIA Collagen mice (ELISA, day 58): IL-12p70; settings: Dexamethasone oral 1 mg/kg, 20 times between day 28 and 57
Description: as §1

TGF-β1 = test: Cytokine ELISA in CIA mice, day 60: TGF-β1; settings: serum pooled from five CIA mice
Source text: With continued reference to FIG. 1, in some embodiments, administration 116 may be done to an animal. As a non-limiting example, the animal may include a mouse, a fish, a rabbit, human, and the like. As a non-limiting example, administration 116 of composition of the engineered virus-based nanoparticle for a treatment of an autoimmune condition may be done to dilute, brown, and non-agouti (DBA) mice based on their susceptibility to collagen-induced arthritis (CIA). Female DBA/1 mice 6 to 8 weeks of age may be maintained under specific pathogen-free conditions. CIA may be induced by the intradermal tail base injection of 100 μg of chicken type II collagen (Sigma-Aldrich) as previously described. Five mice per group may be immunized on days 0 and 21 to induce arthritis. The onset of disease may be confirmed on the day that swelling or erythema may be observed in any paw, typically 4 to 10 days after the second immunization. Each experimental group may be treated seven times, 5 days apart, starting from day 28 after the first immunization, with intraperitoneal injections of saline (200 μI per mouse), TBSV·pLIp1, TBSV·pFADK2, pLIp1+IFA, and pFADK2+IFA (all 50 μg per mouse in 200 μl) or dexamethasone (5 μg per mouse in 200 μl). […] CIA may be assessed using a macroscopic score system based on the visual identification of arthritic limbs.

IL-6 = test: Pro-inflammatory cytokines in sera of CIA Collagen mice (ELISA, day 58): IL-6; settings: Dexamethasone oral 1 mg/kg, 20 times between day 28 and 57
Description: as §1

With `C[C@@H]1C[C@H]2[C@@H]3CCC4=CC(=O)C=C[C@]4(C)[C@@]3(F)[C@@H](O)C[C@]2(C)[C@@]1(O)C(=O)CO` [Dexamethasone, dexamethasone] the “IFN-γ, % of reduction vs CIA Collagen” value (IFN-γ) was 37.39%, the “IL-12p70, % of reduction vs CIA Collagen” value (IL-12p70) was 37.95% and the TGF-β1 (TGF-β1) was 10385.0 pg/mL. For the same compound, the “IL-6, % of reduction vs CIA Collagen” value (IL-6) was 40.13%.
